Assays:
THP-1 cells [1] = assay: Membrane dipole potential, di-8-ANEPPS excitation ratio, spectrofluorometry; format: cell-based, human; conditions: agent 20-200 μM, 10 min, room temperature, 0.05% Pluronic F-127, measured at 37°C, mean of 5 experiments
Protocol: (§1) The human acute monocytic leukemia-derived cell line THP-1 and the human Epstein-Barr virus (EBV) transformed lymphoblastoid cell line JY were obtained from the American Type Culture Collection (Manassas, VA, United States) and cultivated according to their specifications. […] As controls, cells were treated with the corresponding amounts of native MβCD complexes not containing sterols. To study the effects of fatty acids, cells were incubated for 48 h in medium supplemented with saturated stearic acid (SA, Sigma Aldrich), ω-3 polyunsaturated α-linolenic acid (ALA, Sigma Aldrich) or ω-6 polyunsaturated γ-linolenic acid (GLA, Sigma Aldrich) at various concentrations ranging from 12.5 to 50 μM. […] After washing, cells were kept on ice and samples were subsequently warmed to 37°C right before measurements carried out with a Fluorolog-3 spectrofluorometer (Horiba Jobin Yvon, Edison, NJ, United States). During measurements, the cuvette holder was kept at 37°C using a circulating water bath. Excitation spectra were recorded between 380 and 550 nm with the detected emission wavelength set to 660 nm in order to minimize effects of possible changes in membrane fluidity ([Clarke and Kane, 1997]). The ratio of fluorescence intensities integrated between excitation wavelengths 410–440 nm and 490–520 nm was calculated for each sample, which positively correlates with the magnitude of DP ([Clarke and Kane, 1997]; [Kovacs et al., 2017]; [Batta et al., 2020]).

JY cells [2] = assay: as above; format: cell-based, human; conditions: agent 20-200 μM, 10 min, room temperature, 0.05% Pluronic F-127, measured at 37°C, mean of 5 experiments
Protocol: as §1

THP-1 cells [3] = assay: Membrane dipole potential, F66 emission ratio, flow cytometry; format: cell-based, human; conditions: agent 20-200 μM, 10 min, 0.05% Pluronic F-127, at least 20,000 living cells per sample, n = 5
Protocol: (§2) The human acute monocytic leukemia-derived cell line THP-1 and the human Epstein-Barr virus (EBV) transformed lymphoblastoid cell line JY were obtained from the American Type Culture Collection (Manassas, VA, United States) and cultivated according to their specifications. […] As controls, cells were treated with the corresponding amounts of native MβCD complexes not containing sterols. To study the effects of fatty acids, cells were incubated for 48 h in medium supplemented with saturated stearic acid (SA, Sigma Aldrich), ω-3 polyunsaturated α-linolenic acid (ALA, Sigma Aldrich) or ω-6 polyunsaturated γ-linolenic acid (GLA, Sigma Aldrich) at various concentrations ranging from 12.5 to 50 μM. […] After washing, the fluorescence intensities of cells were determined with a FACS Aria III flow cytometer (Becton Dickinson, Mountain View, CA, United States) at 37°C. […] Data analysis was carried out in FCS Express (De Novo Software, Los Angeles, CA, United States). The ratio of emitted intensities in the two wavelength ranges (N^∗/T^∗) was determined for each cell and the average value was calculated for each sample from the data of living cells gated on FSC-SSC dot plots. The value of N^∗/T^∗ ratio negatively correlates with the magnitude of DP ([Kovacs et al., 2017]).

JY cells [4] = assay: as above; format: cell-based, human; conditions: agent 20-200 μM, 10 min, 0.05% Pluronic F-127, at least 20,000 living cells per sample, n = 5
Protocol: as §2

[5] = design: method as in Batta et al., 2020; conditions: lowering DP with the agent; ref Batta et al., 2020; cited from earlier work
Description: One of the most widely studied cellular functions influenced by the magnitude of DP is the cellular binding and uptake of certain substances including drugs ([Asawakarn et al., 2001]), β-amyloid ([Hertel et al., 1997]) and other peptides ([Cladera and O’Shea, 1998]; [Zhan and Lazaridis, 2012]). […] Although cell-penetrating peptides are promising therapeutic tools for de ...

SMILES: O=C(CCc1ccc(O)cc1)c1c(O)cc(O)cc1O [phloretin, 3-(4-hydroxyphenyl)-1-(2,4,6-trihydroxyphenyl) propan-1-one]
- Rexc, di-8-ANEPPS (excitation ratio 410-440 nm / 490-520 nm, positively correlates with DP) (THP-1 cells [1]): dose-dependently decreased
- Rexc, di-8-ANEPPS (excitation ratio 410-440 nm / 490-520 nm, positively correlates with DP) (JY cells [2]): dose-dependently decreased
- Rem, F66 (emission ratio N*/T*, 470-490 nm / 564-606 nm, negatively correlates with DP) (THP-1 cells [3]): increased Rem, F66 values implying lower magnitudes of DP, this change did not reach the level of significance in one of the cell lines
- Rem, F66 (emission ratio N*/T*, 470-490 nm / 564-606 nm, negatively correlates with DP) (JY cells [4]): increased Rem, F66 values implying lower magnitudes of DP, this change did not reach the level of significance in one of the cell lines
- cellular uptake and endo-lysosomal escape of penetratin [5]: increased

— PMC8074792, “An ω-3, but Not an ω-6 Polyunsaturated Fatty Acid Decreases Membrane Dipole Potential and Stimulates Endo-Lysosomal Escape of Penetratin” (Frontiers in Cell and Developmental Biology, 2021)
